This note sets out measurements from patent US6989401B2, “Sulfonic acid derivatives of hydroxamic acids and their use as medicinal products” (Mitsubishi Pharma Corporation, priority 2000, dated 2006).

The structures appear in SMILES notation. Like-named read-outs stand apart in the source and are kept apart here.

Assay [1] deals with LPS in rat peritonitis (CLP; cecal ligation and puncture) model. In words: Inhibitory effect on LPS that increases in rat peritonitis (CLP) model. The assay is classed as in vivo. The note with it: iv, continuous tail vein infusion 2.5 mg/kg/hr. On the procedure: Rat peritonitis (CLP; cecal ligation and puncture) model was prepared according to the method of Wichterman et al. (J. Surg. Res. 29, 189-201 <1980>). That is, a rat fasted overnight was anesthetized with ether, and a midline laparotomy was performed and the cecum was exposed. The cecum was ligated with a 3-0 silk thread at its base and perforated two times with an 18 G injection needle. The cecum was gently squeezed to extrude feces, which were spread around the abdomen, and the sectioned part was sutured. The animal was fixed in a Borrmann cage, and physiological saline or drug solution ([…]) was continuously given from the tail vein at an administration rate of 2.5 mg/kg/hr with an infusion pump (22 M, Harvard, 5 mL/kg/hr as a dose).
After 6 hr of the CLP treatment, the animal was sacrificed with carbonic acid gas. The abdominal cavity was washed by injecting phosphate buffered saline (PBS; 37° C., 10 mL) and the abdominal cavity washing containing ascites (PLF; peritoneal lavage fluid) was recovered. The recovery weight of the obtained PLF was measured, and PLF was centrifuged (1500 rpm for 5 min, 4° C.) to recover supernatant. The blood taken from the heart was centrifuged (3000 rpm for 10 min, 4° C.) using a serum separation tube, and the serum was recovered. The concentration of LPS in the abdominal cavity and serum was measured using Toxinometer MT-285 (Waco Pure Chemical Industries) preheated to 37° C., after diluting the supernatant and serum of the recovered PLF 10^5-fold and 10^2-fold, respectively, with sterile distilled water, and adding 200 μL thereof to a limulus reagent (LAL ES, Waco Pure Chemical Industries). The amount of LPS per abdominal cavity was calculated from amount of recovered abdominal cavity washing (PLF)×LPS concentration of PLF.
The LPS inhibitory ratio of the compound was calculated as the ratio of LPS concentration of the compound administration group to LPS concentration of the physiological saline administration group.

For assay [2], the system named is LPS in E. coli culture supernatant (E. coli NIHJ JC-2 strain). The assay can be described thus: Inhibitory effect on LPS in E. coli culture supernatant. The assay is classed as cell-based. The conditions noted are these: relative ratio to the inhibitory ratio of the compound of Example 1 as 1.0; compound 100 μM, 24 hr. On the procedure:
One platinum loop of E. coli NIHJ JC-2 strain was inoculated into a test tube containing heart infusion broth (HIB, 5 mL) and cultured for about 24 hr. The bacterial culture broth was washed three times by centrifugation (3000 rpm, 15 min, 20° C., TOMY Seiko, RL-131) using 10 mL of fresh HIB medium for one cycle of washing. The washed bacteria were prepared to an about 10^7 colony forming unit (CFU)/mL with a fresh HIB medium, and 0.2 mL of the prepared bacterial suspension was inoculated into an Erlenmeyer flask containing a fresh HIB medium (18.8 mL) (i.e., to final bacterial concentration of about 10^5 CFU/mL). A solution (1 mL) of each compound prepared to a concentration of 2 mM (final concentration of compound 100 μM) was added to the culture broth containing the bacteria. Using a shaker (RGR-1 type, manufactured by IWASHIYA, Ltd.), shake culture was conducted at 37° C., and 2 mL of culture broth after 24 hr was sampled. The sampled culture broth was filtered (DISMIC, 0.45 μm, Advantech Toyo) and diluted 10^5-fold with sterile distilled water. The resulting suspension (200 μL) was added to a limulus reagent (LAL ES, Wako Pure Chemical Industries) and LPS concentration was measured using Toxinometer MT-285 (Wako Pure Chemical Industries) preheated to 37° C.
The LPS inhibitory ratio of the compound was calculated as a ratio of the LPS concentration of the compound addition group relative to the LPS concentration of the compound non-addition group. […] The inhibitory ratio of each compound is shown in the following in Table 1 as a relative ratio to the inhibitory ratio of the compound of Example 1 as 1.0.

Where [3] appears, read: peritoneal lavage fluid 6 hr after CLP, read-out: LPS inhibitory ratio (%) in abdominal cavity.
Setting [4] is: serum 6 hr after CLP, read-out: LPS inhibitory ratio (%) in blood.

Take `CC(C)C[C@@H](C(=O)N[C@@H](Cc1ccccc1)C(=O)NCS(=O)(=O)[O-])C(CN1C(=O)c2ccccc2C1=O)C(=O)NO.[Na+]` (single isomer, unassigned) [Example 15, 5-methyl-3(R)-[2-phenyl-1(S)-(sulfomethylcarbamoyl)ethylcarbamoyl]-2(R or S)-phthalimidomethylhexanohydroxamic acid sodium salt]: the inhibition in vivo at 2.5 mg/kg/h worked out at 70.3% in assay [1] (setting [3]) and 68.2% in assay [1] (setting [4]). For the same molecule, the “inhibitory effect of compound on LPS in E. coli culture supernatant, relative ratio” value (“inhibitory effect of compound … relative ratio” for short) in assay [2] came out at 1.05.

On to `CC(C)C[C@@H](C(=O)N[C@@H](Cc1ccccc1)C(=O)NCCS(=O)(=O)[O-])C(CN1C(=O)c2ccccc2C1=O)C(=O)NO.[Na+]` (single isomer, unassigned) [Example 17, 5-methyl-3(R)-[2-phenyl-1(S)-(2-sulfoethylcarbamoyl)ethylcarbamoyl]-2(R or S)-phthalimidomethylhexanohydroxamic acid sodium salt], for which the inhibition in vivo at 2.5 mg/kg/h is 14.4% in assay [1] (setting [3]) and 59.1% in assay [1] (setting [4]). The “inhibitory effect of compound … relative ratio” value in assay [2] is on record as 0.78.

Consider `CC(C)C[C@@H](C(=O)N[C@@H](Cc1ccccc1)C(=O)NCCCS(=O)(=O)[O-])C(CN1C(=O)c2ccccc2C1=O)C(=O)NO.[Na+]` (single isomer, unassigned) [Example 19, 5-methyl-3(R)-[2-phenyl-1(S)-(3-sulfopropylcarbamoyl)ethylcarbamoyl]-2(R or S)-phthalimidomethylhexanohydroxamic acid sodium salt], for which the values for the inhibition in vivo at 2.5 mg/kg/h in assay [1] (setting [3]) and in assay [1] (setting [4]) were 89.6% and 67.8%, respectively. The “inhibitory effect of compound … relative ratio” value in assay [2] is recorded as 0.67.

Consider `CC(C)C[C@@H](C(=O)N[C@@H](Cc1ccccc1)C(=O)NCCCCS(=O)(=O)[O-])C(CN1C(=O)c2ccccc2C1=O)C(=O)NO.[Na+]` (single isomer, unassigned) [Example 21, 5-methyl-3(R)-[2-phenyl-1(S)-(4-sulfobutylcarbamoyl)ethylcarbamoyl]-2(R or S)-phthalimidomethylhexanohydroxamic acid sodium salt], for which the inhibition in vivo at 2.5 mg/kg/h in assay [1] (setting [3]) is 57.1%; in assay [1] (setting [4]), 55.9%. Further, the “inhibitory effect of compound … relative ratio” value in assay [2] came out at 0.79.

As for `CC(C)C[C@@H](C(=O)N[C@@H](Cc1ccccc1)C(=O)NCCCCCS(=O)(=O)[O-])C(CN1C(=O)c2ccccc2C1=O)C(=O)NO.[Na+]` (single isomer, unassigned) [Example 22, 5-methyl-3(R)-[2-phenyl-1(S)-(5-sulfopentylcarbamoyl)ethylcarbamoyl]-2(R or S)-phthalimidomethylhexanohydroxamic acid sodium salt], the inhibition in vivo at 2.5 mg/kg/h in assay [1] (setting [3]) is 80.7%; in assay [1] (setting [4]), 21.6%. Also, in assay [2], the “inhibitory effect of compound … relative ratio” value turned out to be 0.68.
